Reference: patent publication US20030180797A1, “Identification of ligands for a receptor family and related methods” (priority 2002, published 2003)
Values joined by “and” are separate entries in the source; they are usually repeats but may differ in a detail not shown here. Identical values can stand only once.

Tests used:
Type in all cases: biochemical
[1] = biological target: T1, E. coli DHPR enzyme (Escherichia coli, UniProt P04036); assay: Dihydrodipicolinate reductase (DHPR) kinetic spectrophotometric assay, NADPH oxidation at 340 nm; conditions: for IC50: bi-ligands and pyridine dicarboxylate derivatives, Example VII, FIG. 8
T1 sequence (P04036 whole entry): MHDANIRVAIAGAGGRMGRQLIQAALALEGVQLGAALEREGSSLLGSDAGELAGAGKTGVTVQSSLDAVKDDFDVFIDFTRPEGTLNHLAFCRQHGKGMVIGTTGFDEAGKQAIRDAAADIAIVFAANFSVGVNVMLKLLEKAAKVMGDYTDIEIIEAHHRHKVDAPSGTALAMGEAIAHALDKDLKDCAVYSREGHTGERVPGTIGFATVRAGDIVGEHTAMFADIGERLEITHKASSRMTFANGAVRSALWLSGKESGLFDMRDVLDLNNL
Method: DHPR was diluted in 10 mM HEPES, pH 7.4. Dihydrodipicolinate synthase (DHPS) was not diluted and was stored in eppendorf tubes.
The L-aspartate semialdehyde (L-ASA) solution was prepared in the following manner. A 180 μM stock solution of ASA was prepared. 100 μl of the ASA stock solution was mixed with 150 μl of concentrated NaHCO3 and 375 μl of H2O. […] The L-ASA stock solution was kept at a temperature of −20° C. After dilution, the pH of the 28.8 mM solution was checked and maintained between pH 1 to 2.
The solution for background detection was a 945 μl solution containing 0.1 M HEPES, pH 7.8, 1 mM pyruvate, 6 μM NADPH, 40 μM L-ASA, and 7 μl of 1 mg/ml DHPS at 25° C. in the volumes indicated above. The sample solution was then mixed and incubated for 10 minutes. Inhibitor solutions (500 nM or 100 μM final concentration) and enough dimethylsulfoxide (DMSO) to provide a final DMSO concentration of 5% were added. The solution was mixed and incubated for an additional 6 minutes.
In DHPR samples, the DHPR stock solution was diluted and 5 μl of diluted E. coli DHPR enzyme (1:1000 dilution of 1 mg/ml stock) were added. The sample was mixed for 20 seconds, and then the reaction was run for […]. […] Reading of the samples was continued until 300 seconds.
For assaying bi-ligands, the substrate concentration and the NADPH or NADH concentration were kept near their Km values. […] If substrate mimics (specificity ligands) were tested, the NADPH or NADH concentration was increased.

[2] = biological target: DOXP reductoisomerase from E. coli (Escherichia coli, UniProt P45568); assay: 1-Deoxy-D-xylulose-5-phosphate reductoisomerase (DOXPR) kinetic spectrophotometric assay, NADPH oxidation; conditions: Cibacron Blue at 10.32 μM; read-out: inhibition of DOXPR, positive control
Sequence of DOXP reductoisomerase from E. coli (P45568 whole entry): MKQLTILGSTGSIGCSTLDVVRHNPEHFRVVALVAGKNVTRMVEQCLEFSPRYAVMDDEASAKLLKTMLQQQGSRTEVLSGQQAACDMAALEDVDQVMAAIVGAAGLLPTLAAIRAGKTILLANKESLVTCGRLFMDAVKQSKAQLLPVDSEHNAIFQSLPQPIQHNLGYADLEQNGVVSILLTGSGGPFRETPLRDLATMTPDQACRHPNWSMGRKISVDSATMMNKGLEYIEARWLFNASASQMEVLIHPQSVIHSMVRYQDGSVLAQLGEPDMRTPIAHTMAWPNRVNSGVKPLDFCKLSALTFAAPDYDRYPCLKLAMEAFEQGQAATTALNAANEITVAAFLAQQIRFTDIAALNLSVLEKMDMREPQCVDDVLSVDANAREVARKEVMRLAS
Method: DOXPR was diluted in 10 mM HEPES, pH 7.4.
Solutions of the inhibitors in DMSO were prepared to provide a final DMSO concentration of 5%. […] 1.15 mM DOXP, and 8 μM NADPH. The reaction was then initiated with 10 μl of DOXP reductoisomerase (also known as DOXP reductase) from E. coli (10 μg/ml; 1:200 diilution of 2 mg/ml stock solution).
(§1) When bi-ligands were screened, the substrate concentration and NADPH or NADH concentrations were kept near their Km values. When assaying common ligands (CLMs), the substrate concentration was increased to at least 10 times the Km. If the compounds assayed were specificity ligands (substrate mimics), the NAPDH or NADH concentration was increased.

[3] = biological target: T2, ADH from Bakers Yeast (Saccharomyces cerevisiae, UniProt P00330); assay: Alcohol dehydrogenase (ADH) kinetic spectrophotometric assay, NAD+ reduction; conditions: Cibacron Blue at 15.5 μM; read-out: inhibition of ADH, positive control
T2 sequence (P00330 1-348): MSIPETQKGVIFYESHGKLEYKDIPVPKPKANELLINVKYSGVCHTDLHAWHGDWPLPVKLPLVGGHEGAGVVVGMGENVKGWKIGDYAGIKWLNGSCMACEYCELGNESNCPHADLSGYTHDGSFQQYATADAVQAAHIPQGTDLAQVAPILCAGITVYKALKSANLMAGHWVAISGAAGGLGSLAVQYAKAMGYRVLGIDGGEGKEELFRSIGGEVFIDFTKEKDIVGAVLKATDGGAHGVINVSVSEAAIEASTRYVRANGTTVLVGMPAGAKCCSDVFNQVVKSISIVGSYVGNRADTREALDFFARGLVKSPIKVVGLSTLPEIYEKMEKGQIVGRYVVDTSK
Method: Inhibitor solutions were prepared in DMSO so that, when diluted, the inhibitor concentration was 100 μM and the final DMSO concentration was adjusted to 5%. […] The reaction was then initiated with 10 μl of ADH from Bakers Yeast (Saccharomyces cerevisiae) (3.3 μg/ml; 1:400 dilution of 1.0 mg/ml). […] Reading of the samples was continued until 300 seconds.
Where only a simple read was desired, as in the case of NAD+ concentration determination, 13 μl (10 M stock) of ethanol was used to drive the reaction, and 10 μl of pure enzyme (1 mg/ml) was used. NAD+ was soluble at 2 mM. In this situation, the procedure was as follows. All of the ingredients except for the enzyme were mixed together. The solution was mixed well and the absorbance at 340 nm read. The enzyme was added and read again at OD 340 after the absorbance stopped changing, generally 10 to 15 minutes after the enzyme was added.

[4] = biological target: T3, human DHFR (Homo sapiens, UniProt P00374); assay: Dihydrofolate reductase (DHFR) kinetic spectrophotometric assay; conditions: Cibacron Blue at 3 μM; read-out: inhibition of DHFR, positive control
T3 sequence (P00374 1-187): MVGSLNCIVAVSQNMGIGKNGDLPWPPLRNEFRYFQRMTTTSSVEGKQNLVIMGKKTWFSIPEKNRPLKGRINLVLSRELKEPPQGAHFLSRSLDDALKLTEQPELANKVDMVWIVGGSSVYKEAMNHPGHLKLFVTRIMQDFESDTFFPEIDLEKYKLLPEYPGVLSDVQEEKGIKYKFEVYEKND
Method: H2 folate was dissolved in DMSO to about 10 mM and then diluted with water to a concentration of 0.1 mM.
Inhibitor solutions were prepared in DMSO so that, when diluted, the inhibitor concentration was 100 μM and the final DMSO concentration was adjusted to 5%. […] The reaction was then initiated with 8 μl of human DHFR (0.047 mg/ml; 1:85 dilution of 4 mg/ml stock solution). After the enzyme was added, the reaction was run for 10 minutes.
as §1

[5] = biological target: T4, LDH from Rabbit Muscle (Oryctolagus cuniculus, UniProt P13491); assay: Lactate dehydrogenase (LDH) kinetic spectrophotometric assay, NADH oxidation; conditions: Cibacron Blue at 10.3 mM; read-out: inhibition of LDH, positive control
T4 construct: 10 μl of diluted LDH from Rabbit Muscle; from tissue; host or cells: rabbit muscle
Method: [table] […] These solutions were incubated for 6 minutes at 25° C. in 990 μl of a solution containing 0.1 M HEPES, pH 7.4, […], and 2.5 mM of pyruvate. The reaction was then initiated with 10 μl of diluted LDH from Rabbit Muscle (0.5 μg/ml; 1:2000 dilution of 1.0 mg/ml stock solution). […] Reading of the samples was continued until 300 seconds. […] When bi-ligands were screened, the substrate concentration and NADPH or NADH concentrations were kept near their Km values. […] If the compounds assayed were specificity ligands (substrate mimics), the NAPDH or NADH concentration was increased.

[6] = biological target: T1, E. coli DHPR enzyme; assay: Dihydrodipicolinate reductase (DHPR) kinetic spectrophotometric assay, NADPH oxidation at 340 nm; conditions: read-out: inhibition of DHPR activity

SMILES | IC50 [1] | also measured
N=C1NC(=O)C(=Cc2ccc(O)c(C(=O)NCCSc3cc(C(=O)O)nc(C(=O)O)c3)c2)S1 [compound 16a, 4-{2-[2-hydroxy-5-(2-imino-4-oxo-thiazolidin-5-ylidenemethyl)-benzoylamino]-ethylsulfanyl}-pyridine-2,6-dicarboxylic acid] | ~8.2 µM and ~15.5 µM | 
O=C1NC(=S)SC1=Cc1ccc(-c2ccc(C(=O)NCCSc3cc(C(=O)O)nc(C(=O)O)c3)cc2)o1 [compound 12b, 4-(2-{4-[5-(4-oxo-2-thioxo-thiazolidin-5-ylidenemethyl)-furan-2-yl]-benzoylamino}-ethylsulfanyl)-pyridine-2,6-dicarboxylic acid] | ~7.1 µM | 
O=C1NC(=O)C(=Cc2ccc(-c3ccc(C(=O)NCCSc4cc(C(=O)O)nc(C(=O)O)c4)cc3)o2)S1 [compound 12a, 4-(2-{4-[5-(2,4-dioxo-thiazolidin-5-ylidenemethyl)-furan-2-yl]-benzoylamino}-ethylsufanyl)-pyridine-2,6-dicarboxylic acid] | ~0.536 µM | 
N=C1NC(=O)C(=Cc2ccc(C(=O)NCCSc3cc(C(=O)O)nc(C(=O)O)c3)cc2)S1 [compound 16c, 4-{2-[4-(2-imino-4-oxo-thiazolidin-5-ylidenemethyl)-benzoylamino]-ethylsulfanyl}-pyridine-2,6-dicarboxylic acid] | ~33 µM | 
O=C(NCCSc1cc(C(=O)O)nc(C(=O)O)c1)c1ccc(-c2ccc(-c3nc4cc([N+](=O)[O-])ccc4[nH]3)o2)cc1 [compound 21a, 4-(2-{4-[5-(5-nitro-1H-benzoimidazol-2-yl)-furan-2-yl]-benzoylamino}-ethylsulfanyl)-pyridine-2,6-dicarboxylic acid] | ~0.758 µM | 
O=C1NC(=O)C(=Cc2ccc(-c3cccc(C(=O)NCCSc4cc(C(=O)O)nc(C(=O)O)c4)c3)o2)S1 [compound 12c, 4-(2-{3-[5-(2,4-dioxo-thiazolidin-5-ylidenemethyl)-furan-2-yl]-benzoylamino}-ethylsulfanyl)-pyridine-2,6-dicarboxylic acid] | ~13 µM | 
Nc1c(S(=O)(=O)O)cc(Nc2ccc(Nc3nc(Cl)nc(Nc4ccccc4S(=O)(=O)O)n3)c(S(=O)(=O)O)c2)c2c1C(=O)c1ccccc1C2=O [Cibacron Blue] |  | inhibition at 10.32 µM [2]: 70 to 80%; inhibition at 15.5 µM [3]: 50 to 60%; inhibition at 3 µM [4]: 50 to 70%; inhibition at 2580 µM ([1]; read-out: inhibition of DHPR, positive control): 70 to 80%; inhibition at 10300 µM [5]: 50 to 70%
CC(=O)NCCSc1cc(C(=O)O)nc(C(=O)O)c1 [compound 22, 4-(2-acetylamino-ethylsulfanyl)-pyridine-2,6-dicarboxylic acid] |  | inhibition at 800 µM [6]: ~31%
O=C1NC(=O)C(=Cc2ccc(-c3ccc(O)c(C(=O)NCCSc4cc(C(=O)O)nc(C(=O)O)c4)c3)o2)S1 [compound 12f, 4-(2-{5-[5-(2,4-dioxo-thiazolidin-5-ylidenemethyl)-furan-2-yl]-2-hydroxy-benzoylamino}-ethylsulfanyl)-pyridine-2,6-dicarboxylic acid] | ~4.91 µM | 
O=C(O)c1cc(SCCNC(=O)c2cc3cccc(O)c3cc2O)cc(C(=O)O)n1 [compound 24, 4-{2-[(3,5-dihydroxy-naphthalene-2-carbonyl)-amino]-ethylsulfanyl}-pyridine-2,6-dicarboxylic acid] | 2 µM | 
N=C1NC(=O)C(=Cc2cccc(C(=O)NCCSc3cc(C(=O)O)nc(C(=O)O)c3)c2)S1 [compound 16b, 4-{2-[3-(2-imino-4-oxo-thiazolidin-5-ylidenemethyl)-benzoylamino]-ethylsulfanyl}-pyridine-2,6-dicarboxylic acid] | ~1.02 µM | 
O=C(NCCSc1cc(C(=O)O)nc(C(=O)O)c1)c1ccccc1 [compound 23, 4-(2-benzoylamino-ethylsulfanyl)-pyridine-2,6-dicarboxylic acid] | 78.3 µM | 
O=C1NC(=S)SC1=Cc1ccc(-c2cccc(C(=O)NCCSc3cc(C(=O)O)nc(C(=O)O)c3)c2)o1 [compound 12d, 4-(2-{3-[5-(4-oxo-2-thioxo-thiazolidin-5-ylidenemethyl)-furan-2-yl]-benzoylamino}-ethylsulfanyl)-pyridine-2,6-dicarboxylic acid] | ~0.254 µM | 
